The target in one test is protein kinase C. The test is described as follows: inhibition of protein kinase C, enzyme test. Type of test: biochemical. To be noted: read-out: inhibition of the protein kinases, C-kinase IC50. The procedure:
In order to ascertain whether it is a question of a selective inhibition of MLC kinase, the compounds were also investigated in other enzyme tests for protein kinase, including tests for protein kinase C. The results from the PKC test are also given in the following Table I. Furthermore, the Table contains selectivity factors which were calculated by the determination of the ratios of the IC50 values.

The target in test [1] is T1, MLC kinase (myosin light-chain kinase) (Gallus gallus, UniProt P11799).
T1 construct: MLC kinase was purified from chicken stomach; from tissue; host or cells: chicken stomach (gizzard smooth muscle)
In words: inhibition of MLC kinase, in vitro enzyme test (32P phosphate incorporation). It counts as biochemical, chicken (stomach). The conditions noted are these: for ratio of IC50 C-kinase/IC50 MLC-kinase: selectivity factor calculated from the IC50 values; for MLC kinase inhibition, in words: potency and selectivity vs protein kinase C.
Procedure: Inhibition of the enzyme MLC kinase (EC 3.6.1.3; kinase of the light myosin chain; myosin light-chain kinase).
The inhibition of MLC kinase was measured in an in vitro enzyme test.
The reaction was initiated by the addition of 1 nM MLC kinase. After incubation for 20 minutes at 30° C., the reaction was stopped with TCA and the samples then filtered off. The phosphate incorporation took place by means of Cerenkov counting of the filter.

Where [2] appears, read: 1 nM MLC kinase, 250 μM ATP, pH 7.2, 20 minutes at 30° C., read-out: inhibition of the protein kinases, MLC-kinase IC50.

Consider 18 molecules from patent US5945440A, “Indolocarbazole imides and the use thereof” (priority 1992, dated 1999).

In general, IC50 refers to the concentration at which inhibition is half-maximal.

Each structure is given as a SMILES string. Where two headings read alike, the source gives them in different places. Where only a bound is given, the exact number is not on record here.

T1 sequence (P11799 935-1906): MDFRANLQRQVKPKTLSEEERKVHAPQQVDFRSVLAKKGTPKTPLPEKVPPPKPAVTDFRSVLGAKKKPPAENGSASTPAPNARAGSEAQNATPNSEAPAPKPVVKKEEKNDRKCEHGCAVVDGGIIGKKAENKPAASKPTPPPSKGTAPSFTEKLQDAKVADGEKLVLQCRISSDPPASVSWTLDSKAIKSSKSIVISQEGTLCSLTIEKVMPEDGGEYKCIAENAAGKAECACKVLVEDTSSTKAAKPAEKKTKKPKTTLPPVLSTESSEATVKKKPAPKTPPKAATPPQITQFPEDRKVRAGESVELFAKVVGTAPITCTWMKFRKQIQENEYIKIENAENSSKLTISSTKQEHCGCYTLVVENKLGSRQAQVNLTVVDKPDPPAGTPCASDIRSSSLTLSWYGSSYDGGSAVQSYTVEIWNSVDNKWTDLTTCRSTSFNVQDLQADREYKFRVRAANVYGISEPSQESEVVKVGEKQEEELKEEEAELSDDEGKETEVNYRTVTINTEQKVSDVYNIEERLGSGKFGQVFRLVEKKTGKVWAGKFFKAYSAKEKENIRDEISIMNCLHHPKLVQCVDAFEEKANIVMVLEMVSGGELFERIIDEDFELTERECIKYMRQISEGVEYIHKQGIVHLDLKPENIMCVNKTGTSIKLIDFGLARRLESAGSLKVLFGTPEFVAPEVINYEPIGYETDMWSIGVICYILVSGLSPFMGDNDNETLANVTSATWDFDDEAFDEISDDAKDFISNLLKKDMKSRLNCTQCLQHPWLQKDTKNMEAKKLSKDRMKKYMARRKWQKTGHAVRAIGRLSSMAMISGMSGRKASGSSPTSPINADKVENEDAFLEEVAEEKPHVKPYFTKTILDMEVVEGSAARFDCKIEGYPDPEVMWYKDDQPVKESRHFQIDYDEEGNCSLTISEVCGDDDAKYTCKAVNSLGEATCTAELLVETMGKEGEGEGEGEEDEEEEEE

Take `Cn1c2ccc(O)cc2c2c3c(c4c5ccccc5n(CCC#N)c4c21)C(=O)NC3=O` [Example 2a, 12-(2-cyanoethyl)-6,7,12,13-tetrahydro-3-hydroxy-13-methyl-5,7-dioxo-5H-indolo[2,3-a]pyrrolo[3,4-c]-carbazole]: the 50% inhibitory concentration (IC50) on protein kinase C worked out at 31 nM; in test [1] (setting [2]), 18 nM. In addition, in test [1], the “ratio of IC50 C-kinase/IC50 MLC-kinase” value is 1.7.
Turning to `Cn1c2ccccc2c2c3c(c4c5cc(O)c(O)cc5n(CCC#N)c4c21)C(=O)NC3=O` [Example 2b, 13-(2-cyanoethyl)-6,7,12,13-tetrahydro-2,3-dihydroxy-12-methyl-5,7-dioxo-5H-indolo[2,3-a]pyrrolo[3,4-c]-carbazole], the figures for the half-inhibitory concentration (IC50) (at protein kinase C; in test [1] (setting [2])) were 230 nM and 32 nM, respectively. Further, the “ratio of IC50 C-kinase/IC50 MLC-kinase” value in test [1] is given as 7.2.
In the case of `O=C1NC(=O)c2c1c1c3cc(O)ccc3[nH]c1c1[nH]c3ccc(O)cc3c21` [Example 2e, 6,7,12,13-tetrahydro-3,9-dihydroxy-5,1-dioxo-5H-indolo[2,3-a]pyrrolo[3,4-c]carbazole], the IC50 at protein kinase C is 7 nM; in test [1] (setting [2]), 5.7 nM. In test [1], the “ratio of IC50 C-kinase/IC50 MLC-kinase” value is given as 1.3.
As to `Cn1c2ccc(O)cc2c2c3c(c4c5cc(O)ccc5n(CCC#N)c4c21)C(=O)NC3=O` [Example 2f, 12-(2-cyanoethyl)-6,7,12,13-tetrahydro-3,9-dihydroxy-13-methyl-5,7-dioxo-5H-indolo[2,3-a]pyrrolo-[3,4-c]carbazole], the 50% inhibitory concentration (IC50) at protein kinase C was determined as 4.2 nM; in test [1] (setting [2]), 10 nM. The “ratio of IC50 C-kinase/IC50 MLC-kinase” value in test [1] was 0.4.
For `CN(C)CCCn1c2ccc(O)cc2c2c3c(c4c5ccccc5n(C)c4c21)C(=O)NC3=O` [Example 2g, 13-(3-dimethylaminopropyl)-6,7,12,13-tetrahydro-3-hydroxy-12-methyl-5,7-dioxo-5H-indolo[2,3-a]pyrrolo-25 [3,4-c]carbazole], in that order: 40 nM, 5 nM and 8.
As for `Cn1c2ccccc2c2c3c(c4c5ccccc5n(CCC[N+](C)(C)C)c4c21)C(=O)NC3=O` [Example 3, 12-(3-Dimethylaminopropyl)-6,7,12,13-tetrahydro-13-methyl-5,7-dioxo-5H-indolo[2,3-a]pyrrolo[3,4-c]-carbazole; methiodide], the IC50 came to 190 nM at protein kinase C and 76 nM in test [1] (setting [2]). The “ratio of IC50 C-kinase/IC50 MLC-kinase” value in test [1] is listed as 2.5.
In the case of `Cn1c2ccccc2c2c3c(c4c5ccccc5n(CCCN)c4c21)C(=O)NC3=O` [Example 4, 12-(3-Aminopropyl)-6,7,12,13-tetrahydro-13-methyl-5,7-dioxo-5H-indolo[2,3-a]pyrrolo[3,4-c]carbazole], the 50% inhibitory concentration (IC50) on protein kinase C turned out to be 39 nM. Also, the IC50 in test [1] (setting [2]) was found to be 1.2 nM. In addition, in test [1], the “MLC kinase inhibition, in words” value was “potent and selective inhibitors of MLC kinase”; the “ratio of IC50 C-kinase/IC50 MLC-kinase” value is given as 33.
With `COc1ccc2c(c1)c1c3c(c4c5ccccc5n(C)c4c1n2CCCN)C(=O)NC3=O` [Example 4a, 13-(3-aminopropyl)-6,7,12,13-tetrahydro-3-methoxy-12-methyl-5,7-dioxo-5H-indolo[2,3-a]pyrrolo[3,4-c]-carbazole], the IC50 on protein kinase C was 360 nM. In test [1] (setting [2]), the half-maximal inhibitory concentration (IC50) came to 4.9 nM. In test [1], the “MLC kinase inhibition, in words” value is “potent and selective inhibitors of MLC kinase”; the “ratio of IC50 C-kinase/IC50 MLC-kinase” value is 74.
Turning to `COc1ccc2c(c1)c1c3c(c4c5cc(Cl)ccc5n(CCCN)c4c1n2C)C(=O)NC3=O` [Example 4b, 13-(3-aminopropyl)-3-chloro-6,7,12,13-tetrahydro-9-methoxy-12-methyl-5,7-dioxo-5H-indolo[2,3-a]pyrrolo-[3,4-c]carbazole], the 50% inhibitory concentration (IC50) is 34 nM at protein kinase C and 1.5 nM in test [1] (setting [2]). Moreover, the “MLC kinase inhibition, in words” value in test [1] was “potent and selective inhibitors of MLC kinase”. In addition, the “ratio of IC50 C-kinase/IC50 MLC-kinase” value in test [1] is 23.
On to `CC(C)NCCCn1c2ccccc2c2c3c(c4c5ccccc5n(C)c4c21)C(=O)NC3=O` [Example 4c, 13-(3-isopropylaminopropyl)-6,7,12,13-tetrahydro-13-methyl-5,7-dioxo-5H-indolo[2,3-a]pyrrolo[3,4-c]-carbazole], for which the IC50 at protein kinase C came out at 53 nM; in test [1] (setting [2]), 21 nM. The “ratio of IC50 C-kinase/IC50 MLC-kinase” value in test [1] is recorded as 2.5.
For `COc1ccc2[nH]c3c(c4c(c5c6cc(OC)ccc6n(CCCN(C)C)c35)C(=O)NC4=O)c2c1` [Example 7, 12-(3-Dimethylaminopropyl)-6,7,12,13-tetrahydro-3,9-dimethoxy-5,7-dioxo-5H-indolo[2,3-a]pyrrolo[3,4-c]-carbazole], in that order: 380 nM, 40 nM and 9.5.
For `CN(C)CCCn1c2ccccc2c2c3c(c4c5ccccc5[nH]c4c21)C(=O)NC3=O` [Example 7a, 13-(3-dimethylaminopropyl)-6,7,12,13-tetrahydro-5,7-dioxo-5H-indolo[2,3-a]pyrrolo[3,4-c]carbazole], in that order: 530 nM, 52 nM and 10.
Consider `COc1ccc2[nH]c3c(c4c(c5c6cc(OC)ccc6n(C)c35)C(=O)NC4=O)c2c1` [Example 7b, 6,7,12,13-tetrahydro-3,9-dimethoxy-12-methyl-5,7-dioxo-5H-indolo[2,3-a]pyrrolo[3,4-c]carbazole], for which, on protein kinase C, the half-maximal inhibitory concentration (IC50) is greater than 10000 nM. The IC50 in test [1] (setting [2]) was 8.7 nM. Also, in test [1], the “MLC kinase inhibition, in words” value was “potent and selective inhibitors of MLC kinase”; the “ratio of IC50 C-kinase/IC50 MLC-kinase” value was greater than 1149.
Consider `COc1ccc2[nH]c3c(c4c(c5c6ccccc6n(C)c35)C(=O)NC4=O)c2c1` [Example 7d, 6,7,12,13-tetrahydro-3-methoxy-12-methyl-5,7-dioxo-5H-indolo[2,3-a]pyrrolo[3,4-c]carbazole], for which the results for the 50% inhibitory concentration (IC50) (at protein kinase C; in test [1] (setting [2])) were 25 nM and 8.4 nM, respectively. In test [1], the “ratio of IC50 C-kinase/IC50 MLC-kinase” value is listed as 3.0.
For `O=C1NC(=O)c2c1c1c3ccccc3[nH]c1c1c2c2ccccc2n1CC(O)CO` (centres unmarked) [Example 8, 12-(2,3-Dihydroxy-1-propyl)-6,7,12,13-tetrahydro-5,7-dioxo-5H-indolo[2,3-a]pyrrolo[3,4-c]carbazole], in that order: 59 nM, 5.2 nM and 11.3.
For `O=C1NC(=O)c2c1c1c3ccccc3[nH]c1c1[nH]c3ccccc3c21` [Example 11a, 6,7,12,13-tetrahydro-5,7-dioxo-5H-indolo[2,3-a]pyrrolo[3,4-c]carbazole], the half-maximal inhibitory concentration (IC50) at protein kinase C was 1900 nM. For the same molecule, in test [1], inhibition was half-maximal at 420 nM (IC50) and the “ratio of IC50 C-kinase/IC50 MLC-kinase” value is listed as 4.5.
As to `COc1ccc2[nH]c3c4[nH]c5ccccc5c4c4c(c3c2c1)C(=O)NC4=O` [Example 11b, 6,7,12,13-tetrahydro-3-methoxy-5,7-dioxo-5H-indolo[2,3-a]pyrrolo[3,4-c]carbazole], the IC50 on protein kinase C was determined as 280 nM; in test [1] (setting [2]), 60 nM. The “ratio of IC50 C-kinase/IC50 MLC-kinase” value in test [1] is reported as 4.7.
Turning to `O=C1NC(=O)c2c1c1c3ccccc3[nH]c1c1[nH]c3cc(Cl)ccc3c21` [Example 11c, 2-chloro-6,7,12,13-tetrahydro-5,7-dioxo-5H-indolo[2,3-a]pyrrolo[3,4-c]carbazole], the IC50 at protein kinase C was found to be 4000 nM. In test [1] (setting [2]), the IC50 was found to be 86 nM. In test [1], the “MLC kinase inhibition, in words” value was “potent and selective inhibitors of MLC kinase”; the “ratio of IC50 C-kinase/IC50 MLC-kinase” value is 47.
